# Source: patent publication US20260159497A1, “SOLID FORMS OF A COMPLEMENT FACTOR B INHIBITOR” (Novartis Pharma AG, priority 2022, published 2026)
# Like-named read-outs stand apart in the source and are kept apart here.
# Test: Pharmacokinetic study after oral dosing, rat
# Format: in vivo, SD Rat
# Conditions: for Cmax / AUC(0-t) / concentration at 24 h: male, SD (Sprague-Dawley), rat, in vivo, po, oral, suspension in 0.5% methocel + 0.1% tween 80 in water, SD Rat male, Fed, 5 mL/kg; for AUC(0-t): read-out: AUC0-24 h; for concentration at 24 h: read-out: C24 h
# Description: The pharmacokinetic profile of (S)-4-(2,2-difluoro-7-((5-methoxy-7-methyl-1H-indol-4-yl)methyl)-7-azaspiro[3.5]nonan-6-yl)benzoic acid was assessed in rats, dogs or non-human primates (NHPs) as the amorphous compound as a solution in 20% kleptose in water and as a suspension of Form A in 0.5% methocel+0.1% tween 80 in water.
# Amorphous (S)-4-(2,2-difluoro-7-((5-methoxy-7-methyl-1H-indol-4-yl)methyl)-7-azaspiro[3.5]nonan-6-yl)benzoic acid was weighed into a glass vial with a magnetic stir bar to give formulations at dose concentrations of 0.1-1000 mg/kg. Approx. ⅓ the final volume of 20% kleptose (hydroxypropyl β-cyclodextrin, Aldrich, CAS #128446-35-5) in water was added to the vial (to afford either a 5 mL/kg or 10 mL/kg dose volume, depending on the species). The mixture was basified to a pH of 8.5 to 10 using dropwise addition of 2-5 M aqueous NaOH solution, with pH monitoring. The suspension was stirred, vortexed, and sonicated for 15-20 minutes to afford a homogenous mixture. The second ⅓ of the final volume of 20% kleptose was added to the vial and further stirred, vortexed, and sonicated for 15-20 minutes to afford a homogenous mixture. The pH was monitored and further pH adjustment to pH 8.5 to 10, if necessary, can be applied. The final ⅓ the final volume of 20% kleptose was added to the vial and further stirred, vortexed, and sonicated for 15-20 minutes to afford a homogenous solution. The pH of the solution was adjusted to a pH of 7.5 to 8.0 with dropwise addition of 1.0 M aqueous HCl solution with gentle stirring. The formulation should remain in solution.
# Form A crystalline (S)-4-(2,2-difluoro-7-((5-methoxy-7-methyl-1H-indol-4-yl)methyl)-7-azaspiro[3.5]nonan-6-yl)benzoic acid was weighed into a glass vial with a magnetic stir bar to give formulations at dose concentrations of 0.1-1000 mg/kg. The crystalline material should preferably have a particle size with a D50 below 50 μm, and ideally with a D50 below 5 μm. The desired volume of 0.5% methocel (viscosity 400 cP, Aldrich, CAS #9004-67-5)/0.1% tween-80 (Aldrich, CAS #9005-65-6) was added (to afford a 5 mL/kg dose volume). The contents of the vial were stirred at 400-500 rpm on a stir-plate. Gentle vortex or bath sonication can be applied to break down any large clumps. The vial should be mixed well to ensure homogeneity right before animal dosing.
# [1] = 30 mg/kg, 30 mg/kg, particle size D50 = 5.1 μm
# [2] = 300 mg/kg, 300 mg/kg, particle size D50 = 5.1 μm
# [3] = 300 mg/kg, 300 mg/kg, particle size D50 = 101 μm
compound,measurement,setting,value
"COc1cc(C)c2[nH]ccc2c1CN1CCC2(C[C@H]1c1ccc(C(=O)O)cc1)CC(F)(F)C2 [Form A, (S)-4-(2,2-difluoro-7-((5-methoxy-7-methyl-1H-indol-4-yl)methyl)-7-azaspiro[3.5]nonan-6-yl)benzoic acid]",Cmax,[1],6.1 µM
same,AUC(0-t),[1],79.2 µM·h
same,concentration at 24 h,[1],1.9 µM
same,Cmax,[2],157 µM
same,AUC(0-t),[2],958 µM·h
same,concentration at 24 h,[2],3.3 µM
same,Cmax,[3],80 µM
same,AUC(0-t),[3],547 µM·h
same,concentration at 24 h,[3],2.7 µM
same,"Cmax, AUC0-24 and C24h compared with the amorphous form","oral dosing, smaller particle size",higher
